Results on 2 compounds are retold here after paper PMC11091976, “Shorter Peptide Nucleic Acid Probes Improve Affibody-Mediated Peptide Nucleic Acid-Based Pretargeting” (ACS Pharmacology & Translational Science, 2024).

In series [1] the test system is HER2 xenograft mouse model. To be noted: in vivo; cited from earlier work. As to the method:
In our recent study,[29] we introduced a second-generation of pretargeting probes featuring a common 15-mer affibody-PNA conjugate, ZHER2:343-HP15, and three complementary secondary probes of varying lengths: a 9-mer (HP16), a 12-mer (HP17), and a 15-mer (HP18). […] At 4 h postinjection, there were no significant differences in the tumor-to-kidney ratios among the three different pretargeting groups.

Series [2] deals with Z-HP9. As to the kind of experiment: SPR off-rate screening (single-cycle kinetics), immobilized Z-HP9. In kind it is binding. The note with it: primary probe HP9 (immobilized Z-HP9), 25 °C, PBS-T pH 7.4, 120 nM HP16/HP20 or 362 nM HP21/HP19, dissociation 150 min, 1:1 model, duplicates. As for the experimental part: The stability of new pretargeting probe combinations was assessed using SPR, and duplex melting temperatures were measured with UV–vis spectroscopy. In SPR, a high concentration of the secondary probe was injected over immobilized primary agents, and the dissociation of the hybridized complexes was monitored over 150 min (see Figures 3A, S22, and Table 2).
(§1) We utilized SPR on a Biacore T200 instrument (Cytiva) to examine how secondary PNA probes (6-mer HP19, 7-mer HP21, 8-mer HP20, and 9-mer HP16) bind to primary agents. These experiments were conducted using dextran-coated CM5 sensor chips and PBS-T buffer at pH 7.4. The ligands were immobilized through a standard EDC/NHS coupling method, and the chip surface was sealed with ethanolamine. A reference surface with no primary agent was also included.
For ranking the off-rate (kd) of the secondary probes, we employed single-cycle kinetics (SCK) at 25 °C with a flow rate of 50 μL/min. […] Secondary PNA probes were injected at various concentrations, and dissociation was monitored for 10,000 s. To regenerate the chip surface, we used two 30 s injections of 10 mM glycine-HCl, pH 1.5.
(§2) All SPR experiments were performed in duplicate, and data analysis was conducted using the Biacore T200 Evaluation software version 2.0 with a 1:1 binding model.
Figure S22: Representative SPR sensorgrams of the dissociation phase of HP16 (9-mer), HP20 (8-mer), HP21 (7-mer) and HP19 […]
After injection with the secondary probe
(120 nM of HP16 and HP20 or 362 nM of HP21 and HP19) the dissociation of the formed complex was followed for 150 minutes. All experiments were done in duplicates, and the data presented is double-referenced (reference channel and buffer injection are subtracted).
(1 picture or pasted object on this page, not shown here)

For series [3], the system named is HP15. In words: UV melting of PNA:PNA duplex with primary probe HP15. In kind it is physicochemical. The note with it: UV 260 nm, 20-95 °C at 1 °C/min, 5 μM each probe, 10 mM phosphate buffer, 10 mM KCl, pH 7.4. As to the method: The melting temperatures of secondary probes after duplex formation with primary probes were also measured by monitoring the absorbance at 260 nm as a function of temperature (see Figure S23). All probe pairs had melting temperatures well above 37 °C (body temperature) and ranged from 51 °C for the HP6:HP19 pair with 6 complementary bases to 82 °C for the previously studied HP15:HP18 pair with 15 complementary bases (see Figure 3B and Table 2). […] This secondary structure is typically adopted by antiparallel and L-amino acid-modified PNA–PNA duplexes at neutral pH.[49]
Figure S23: Normalized temperature melting profiles from 20–95°C for different primary and secondary probe pairs. UV melting curves at 260 nm. (A) HP15 (15-mer) toward secondary 15-, 12- and 9-mers. (B) HP12 (12-mer) toward secondary 12-, 9-, 8-, 7- and 6-mers. (C) HP9 (9-mer) toward secondary 9-, 8-, 7- and 6-mers. (D) HP6 (6-mer) toward secondary 6-mer.
Concentrations of duplexes in A–D are 5 μM in 10 mM […] with 10 mM KCl at pH 7.4.
(also on this page, place not known: Fraction melted Fraction meltedFraction melted Fraction melted) […]
Supplementary Material and methods […]
Biophysical characterization of PNA:PNA duplexes using CD Spectroscopy and […]
Circular dichroism (CD) and UV melts of PNA:PNA duplexes were measured on a CD spectrometer (Applied Photophysics, Leatherhead, UK) with Peltier temperature control and an external temperature probe. […]
from 20°C to 95°C with a 1°C/min temperature gradient. Simultaneously, the UV absorbance at 260 nm was recorded as a function of temperature. Fraction melted data was calculated […]
Fraction melted = 1 ― UVds― UVss , where UVss and UVds are the UV absorbances at 95°C and 20°C, respectively. The melting temperature (Tm) was determined as the maximum of the first derivative of the melting curve and was computed using the Global 3 analysis software (Applied Photophysics, […]
CD spectra in the range of 200–300 nm were recorded for all hybridized PNA:PNA pairs at 20°C before and after the UV melting experiments. […]

For series [4], the system named is Z-HP15. As to the kind of experiment: Multicycle kinetic SPR, immobilized Z-HP15. In kind it is binding. To be noted: MCK SPR. As for the experimental part:
M^–1 s^–1, as well as the slowest dissociation rate constant (kd) at 3.4 × 10^–5 s^–1.
as §1
Association and dissociation times were set at 700 and 1800 s, respectively, with regeneration accomplished through a 30 s injection of 10 mM glycine-HCl, pH 1.5.
as §2

By Tm is commonly meant the temperature at the midpoint of the melting transition. In general, Kd refers to the constant that tells how readily two partners part at equilibrium. The low end stands for tighter binding, the high end for weaker binding.

`NC(=O)[C@H](Cc1ccc(O)cc1)NC(=O)[C@H](CCC(=O)O)NC(=O)[C@H](CCC(=O)O)NC(=O)CN(CCNC(=O)CN(CCNC(=O)CN(CCNC(=O)CN(CCNC(=O)CN(CCNC(=O)CN(CCNC(=O)CN(CCNC(=O)CN(CCNC(=O)CN(CCNC(=O)[C@H](CO)NC(=O)[C@H](CO)NC(=O)COCCOCCNC(=O)CN1CCN(CC(=O)O)CCN(CC(=O)O)CCN(CC(=O)O)CC1)C(=O)Cn1cnc2c(N)ncnc21)C(=O)Cn1cnc2c(N)ncnc21)C(=O)Cn1ccc(N)nc1=O)C(=O)Cn1cnc2c(N)ncnc21)C(=O)Cn1ccc(N)nc1=O)C(=O)Cn1ccc(N)nc1=O)C(=O)Cn1cnc2c(N)ncnc21)C(=O)Cn1cnc2c(=O)[nH]c(N)nc21)C(=O)Cn1cnc2c(=O)[nH]c(N)nc21` [[^177Lu]Lu-HP16, metal not drawn]: the kidney uptake in series [1] is 6 ± 1 % ID/g.

As to “DOTA-AEEA-SS-aacaccagg-EEY-NH2 [HP16, 9-mer secondary PNA probe with DOTA]”, the kd is 2.5 × 10^–5 s^–1 in series [2]; 3.4 × 10^–5 s^–1 in series [4] (primary probe HP15, 25 °C); 8.1 × 10^–5 s^–1 in series [4] (primary probe HP15, 37 °C). In series [3], the midpoint of thermal melting (Tm) was 73 °C. The ka in series [4] (primary probe HP15 (Z-HP15 immobilized), 25 °C, 1.4-70 nM, 1:1 model, duplicates) is 1.0 × 10^5 M^–1 s^–1; in series [4] (primary probe HP15, 37 °C), 1.8 × 10^5 M^–1 s^–1. Moreover, the dissociation constant (Kd) in series [4] (primary probe HP15, 25 °C) stood at 320 pM; in series [4] (primary probe HP15, 37 °C) it was 440 pM.
